Values after ≈ are worked out from the molar mass of the structure shown.
Experiments:
[1] = biological target: T1, PBP3 from Pseudomonas aeruginosa (PAO1) (Pseudomonas aeruginosa, UniProt G3XD46); experiment: Bocillin-FL fluorescence polarization competition binding, P. aeruginosa PBP3; settings: Binding affinity to P. aeruginosa PBP3; fluorescence polarization competition binding assay using Bocillin-FL; read-out: P. aeruginosa PBP3 Potency
T1 construct: made in house
Procedure, shortened: (§1)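 Purified PBP was preincubated with inhibitor (E. coli PBP3 1.5 μM, 30 min; P. aeruginosa PBP3 0.75 μM, A. baumannii PBP3 0.2 μM and PBP1a 1 μM, 15 min), then Bocillin-FL (0.1 μM; 0.05 μM for PBP1a) added and FP read up to 60 min. EC50 = 50% loss of bound probe.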

[2] = biological target: T2, PBP3 from Acinetobacter baumannii (ATCC 19606) (Acinetobacter baumannii, UniProt A0ABX6CK25); experiment: Bocillin-FL fluorescence polarization competition binding, A. baumannii PBP3; settings: fluorescence polarization competition binding assay using Bocillin-FL; read-out: A. baumannii PBP3 Potency
T2 sequence (A0ABX6CK25 64-610): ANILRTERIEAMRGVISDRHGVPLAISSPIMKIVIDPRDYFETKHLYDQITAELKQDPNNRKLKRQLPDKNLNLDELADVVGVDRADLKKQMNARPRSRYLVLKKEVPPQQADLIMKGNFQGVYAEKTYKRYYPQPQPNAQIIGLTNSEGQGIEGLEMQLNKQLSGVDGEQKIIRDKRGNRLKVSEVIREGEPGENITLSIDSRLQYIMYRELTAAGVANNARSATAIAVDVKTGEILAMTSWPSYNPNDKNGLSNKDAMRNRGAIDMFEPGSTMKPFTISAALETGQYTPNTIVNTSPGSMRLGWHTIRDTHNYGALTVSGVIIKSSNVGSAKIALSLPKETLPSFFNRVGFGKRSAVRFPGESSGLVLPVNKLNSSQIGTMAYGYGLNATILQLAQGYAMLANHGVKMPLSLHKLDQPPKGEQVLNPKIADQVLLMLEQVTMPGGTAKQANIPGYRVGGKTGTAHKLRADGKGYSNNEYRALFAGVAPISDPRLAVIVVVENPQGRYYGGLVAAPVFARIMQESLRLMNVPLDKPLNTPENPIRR
Procedure, shortened: as §1

[3] = tested on: P. aeruginosa ATCC 35151; experiment: microbe, parasite or virus in culture; format: cell-based; settings: Pseudomonas aeruginosa, ATCC35151, read-out: Minimum inhibitory concentration, P. aeruginosa ATCC 35151
[4] = tested on: P. aeruginosa (ΔmexAB-oprM); experiment: Broth microdilution MIC in iron-depleted CAMHB (IDM); format: cell-based; settings: Pseudomonas aeruginosa; iron-depleted CAMHB (IDM); […]; read-out: Minimum inhibitory concentration, P. aeruginosa ΔmexAB-oprM
[5] = tested on: P. aeruginosa CDC-0095; experiment: microbe, parasite or virus in culture; format: cell-based; settings: Pseudomonas aeruginosa, CDC0095, read-out: Minimum inhibitory concentration, P. aeruginosa CDC-0095
[6] = tested on: A. baumannii 1258916; experiment: microbe, parasite or virus in culture; format: cell-based, Acinetobacter baumannii; settings: Acinetobacter baumannii, 1258916, read-out: MIC, A. baumannii 1258916
[7] = tested on: A. baumannii CDC-0033; experiment: microbe, parasite or virus in culture; format: cell-based; settings: Acinetobacter baumannii, CDC0033, read-out: MIC, A. baumannii CDC-0033
[8] = tested on: A. baumannii CDC-0036; experiment: microbe, parasite or virus in culture; format: cell-based; settings: Acinetobacter baumannii, CDC0036, read-out: MIC, A. baumannii CDC-0036
[9] = tested on: P. aeruginosa CDC-0110; experiment: microbe, parasite or virus in culture; format: cell-based; settings: Pseudomonas aeruginosa, CDC0110, read-out: Minimum inhibitory concentration, P. aeruginosa CDC-0110

T1 sequence (G3XD46 whole entry): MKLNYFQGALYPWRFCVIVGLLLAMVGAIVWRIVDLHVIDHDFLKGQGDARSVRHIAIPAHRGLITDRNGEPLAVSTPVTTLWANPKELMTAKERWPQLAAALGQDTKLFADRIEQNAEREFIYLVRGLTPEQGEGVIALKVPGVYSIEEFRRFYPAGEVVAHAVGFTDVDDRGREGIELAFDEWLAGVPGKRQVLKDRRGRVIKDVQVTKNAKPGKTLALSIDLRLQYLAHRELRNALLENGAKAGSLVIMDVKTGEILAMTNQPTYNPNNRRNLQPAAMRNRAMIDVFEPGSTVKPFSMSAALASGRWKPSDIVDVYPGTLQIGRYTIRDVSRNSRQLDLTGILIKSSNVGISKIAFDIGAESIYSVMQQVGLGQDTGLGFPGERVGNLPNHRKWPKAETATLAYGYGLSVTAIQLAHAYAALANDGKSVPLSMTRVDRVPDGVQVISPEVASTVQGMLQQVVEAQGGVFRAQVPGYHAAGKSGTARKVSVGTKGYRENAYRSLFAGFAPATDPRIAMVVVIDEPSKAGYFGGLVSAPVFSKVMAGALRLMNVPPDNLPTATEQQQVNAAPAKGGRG

SMILES	IC50 [1]	IC50 [2]	MIC [3]	MIC [4]	MIC [5]	MIC [6]	MIC [7]	MIC [8]	MIC [9]
O=C(O)c1c(F)ccc2c1OB(O)[C@@H](NC(=O)[C@H](NC(=O)N1CCN(C3CCN(C(=O)Nc4cc(O)cc(O)c4)CC3)C1=O)c1cc(F)c(O)c(O)c1Cl)C2 [Example 456, (R)-3-((R)-2-(2-chloro-5-fluoro-3,4-dihydroxyphenyl)-2-(3-(1-((3,5-dihydroxyphenyl)carbamoyl)piperidin-4-yl)-2-oxoimidazolidine-1-carboxamido)acetamido)-7-fluoro-2-hydroxy-3,4-dihydro-2H-benzo[e][1,2]oxaborinine-8-carboxylic acid]	< 10 µM	< 10 µM	< 1 µg/mL	< 1 µg/mL	< 1 µg/mL	< 1 µg/mL	< 1 µg/mL	< 1 µg/mL	< 1 µg/mL
O=C(O)c1c(F)ccc2c1OB(O)[C@@H](NC(=O)[C@H](NC(=O)N1CCN(C3CCN(C(=O)c4cccnc4)CC3)C1=O)c1cc(F)c(O)c(O)c1Cl)C2 [Example 460, (R)-3-((R)-2-(2-chloro-5-fluoro-3,4-dihydroxyphenyl)-2-(3-(1-nicotinoylpiperidin-4-yl)-2-oxoimidazolidine-1-carboxamido)acetamido)-7-fluoro-2-hydroxy-3,4-dihydro-2H-benzo[e][1,2]oxaborinine-8-carboxylic acid]	< 10 µM	< 10 µM	< 1 µg/mL	< 1 µg/mL	< 1 µg/mL	< 1 µg/mL	< 1 µg/mL	< 1 µg/mL	< 1 µg/mL
O=C(O)c1c(F)ccc2c1OB(O)[C@@H](NC(=O)[C@H](NC(=O)N1CCN(C3CCN(C(=O)c4ccncc4)CC3)C1=O)c1cc(F)c(O)c(O)c1Cl)C2 [Example 461, (R)-3-((R)-2-(2-chloro-5-fluoro-3,4-dihydroxyphenyl)-2-(3-(1-isonicotinoylpiperidin-4-yl)-2-oxoimidazolidine-1-carboxamido)acetamido)-7-fluoro-2-hydroxy-3,4-dihydro-2H-benzo[e][1,2]oxaborinine-8-carboxylic acid]	< 10 µM	< 10 µM	< 1 µg/mL	< 1 µg/mL	< 1 µg/mL	< 1 µg/mL	< 1 µg/mL	< 1 µg/mL	< 1 µg/mL
O=C(O)c1c(F)ccc2c1OB(O)[C@@H](NC(=O)C(NC(=O)N1CCN(C3CCN(C(=O)Nc4cc(O)ccc4F)CC3)C(=O)C1=O)c1cc(F)c(O)c(O)c1Cl)C2 (stereo partly drawn) [Example 479, (3R)-3-(2-(2-chloro-5-fluoro-3,4-dihydroxyphenyl)-2-(4-(1-((2-fluoro-5-hydroxyphenyl)carbamoyl)piperidin-4-yl)-2,3-dioxopiperazine-1-carboxamido)acetamido)-7-fluoro-2-hydroxy-3,4-dihydro-2H-benzo[e][1,2]oxaborinine-8-carboxylic acid]	< 10 µM	< 10 µM	< 1 µg/mL	< 1 µg/mL	< 1 µg/mL	< 1 µg/mL	2 to 4 µg/mL (≈ 2.44 to 4.88 µM)	< 1 µg/mL	< 1 µg/mL
O=C(O)c1c(F)ccc2c1OB(O)[C@@H](NC(=O)C(NC(=O)N1CCN(C3CCN(C(=O)Nc4ccc(F)c(O)c4)CC3)C(=O)C1=O)c1cc(F)c(O)c(O)c1Cl)C2 (stereo partly drawn) [Example 480, (3R)-3-(2-(2-chloro-5-fluoro-3,4-dihydroxyphenyl)-2-(4-(1-((4-fluoro-3-hydroxyphenyl)carbamoyl)piperidin-4-yl)-2,3-dioxopiperazine-1-carboxamido)acetamido)-7-fluoro-2-hydroxy-3,4-dihydro-2H-benzo[e][1,2]oxaborinine-8-carboxylic acid]	< 10 µM	< 10 µM	< 1 µg/mL	< 1 µg/mL	< 1 µg/mL	< 1 µg/mL	2 to 4 µg/mL (≈ 2.44 to 4.88 µM)	2 to 4 µg/mL (≈ 2.44 to 4.88 µM)	2 to 4 µg/mL (≈ 2.44 to 4.88 µM)
O=C(O)c1c(F)ccc2c1OB(O)[C@@H](NC(=O)C(NC(=O)N1CCN(C3CCN(C(=O)Nc4cc(O)cc(F)c4)CC3)C(=O)C1=O)c1cc(F)c(O)c(O)c1Cl)C2 (stereo partly drawn) [Example 481, (3R)-3-(2-(2-chloro-5-fluoro-3,4-dihydroxyphenyl)-2-(4-(1-((3-fluoro-5-hydroxyphenyl)carbamoyl)piperidin-4-yl)-2,3-dioxopiperazine-1-carboxamido)acetamido)-7-fluoro-2-hydroxy-3,4-dihydro-2H-benzo[e][1,2]oxaborinine-8-carboxylic acid]	< 10 µM	< 10 µM	< 1 µg/mL	< 1 µg/mL	< 1 µg/mL	< 1 µg/mL	2 to 4 µg/mL (≈ 2.44 to 4.88 µM)	< 1 µg/mL	< 1 µg/mL
O=C(O)c1c(F)ccc2c1OB(O)[C@@H](NC(=O)[C@H](NC(=O)N1CCN(C3CCN(C(=O)Nc4cccc(O)c4Cl)CC3)C(=O)C1=O)c1cc(F)c(O)c(O)c1Cl)C2 [Example 482, (R)-3-((R)-2-(4-(1-((2-chloro-3-hydroxyphenyl)carbamoyl)piperidin-4-yl)-2,3-dioxopiperazine-1-carboxamido)-2-(2-chloro-5-fluoro-3,4-dihydroxyphenyl)acetamido)-7-fluoro-2-hydroxy-3,4-dihydro-2H-benzo[e][1,2]oxaborinine-8-carboxylic acid]	< 10 µM	< 10 µM	< 1 µg/mL	< 1 µg/mL	< 1 µg/mL	< 1 µg/mL	2 to 4 µg/mL (≈ 2.39 to 4.79 µM)	< 1 µg/mL	2 to 4 µg/mL (≈ 2.39 to 4.79 µM)
O=C(O)c1c(F)ccc2c1OB(O)[C@@H](NC(=O)C(NC(=O)N1CCN(C3CCN(C(=O)Nc4cc(O)ccc4Cl)CC3)C(=O)C1=O)c1cc(F)c(O)c(O)c1Cl)C2 (stereo partly drawn) [Example 483, (3R)-3-(2-(2-chloro-5-fluoro-3,4-dihydroxyphenyl)-2-(4-(1-((2-chloro-5-hydroxyphenyl)carbamoyl)piperidin-4-yl)-2,3-dioxopiperazine-1-carboxamido)acetamido)-7-fluoro-2-hydroxy-3,4-dihydro-2H-benzo[e][1,2]oxaborinine-8-carboxylic acid]	< 10 µM	< 10 µM	< 1 µg/mL	< 1 µg/mL	2 to 4 µg/mL (≈ 2.39 to 4.79 µM)	< 1 µg/mL	8 to 16 µg/mL (≈ 9.58 to 19.2 µM)	2 to 4 µg/mL (≈ 2.39 to 4.79 µM)	2 to 4 µg/mL (≈ 2.39 to 4.79 µM)
O=C(O)c1c(F)ccc2c1OB(O)[C@@H](NC(=O)C(NC(=O)N1CCN(C3CCN(C(=O)Nc4cc(O)cc(Cl)c4)CC3)C(=O)C1=O)c1cc(F)c(O)c(O)c1Cl)C2 (stereo partly drawn) [Example 484, (3R)-3-(2-(2-chloro-5-fluoro-3,4-dihydroxyphenyl)-2-(4-(1-((3-chloro-5-hydroxyphenyl)carbamoyl)piperidin-4-yl)-2,3-dioxopiperazine-1-carboxamido)acetamido)-7-fluoro-2-hydroxy-3,4-dihydro-2H-benzo[e][1,2]oxaborinine-8-carboxylic acid]	< 10 µM	< 10 µM	< 1 µg/mL	< 1 µg/mL	2 to 4 µg/mL (≈ 2.39 to 4.79 µM)	< 1 µg/mL	2 to 4 µg/mL (≈ 2.39 to 4.79 µM)	2 to 4 µg/mL (≈ 2.39 to 4.79 µM)	2 to 4 µg/mL (≈ 2.39 to 4.79 µM)
O=C(O)c1c(F)ccc2c1OB(O)[C@@H](NC(=O)C(NC(=O)N1CCN(C3CCN(S(=O)(=O)Cc4cccc(O)c4)CC3)C(=O)C1=O)c1cc(F)c(O)c(O)c1Cl)C2 (stereo partly drawn) [Example 485, (3R)-3-(2-(2-chloro-5-fluoro-3,4-dihydroxyphenyl)-2-(4-(1-((3-hydroxybenzyl)sulfonyl)piperidin-4-yl)-2,3-dioxopiperazine-1-carboxamido)acetamido)-7-fluoro-2-hydroxy-3,4-dihydro-2H-benzo[e][1,2]oxaborinine-8-carboxylic acid]	< 10 µM	< 10 µM	< 1 µg/mL	< 1 µg/mL	< 1 µg/mL	< 1 µg/mL	< 1 µg/mL	< 1 µg/mL	< 1 µg/mL

— patent US20240270762A1, “PENICILLIN-BINDING PROTEIN INHIBITORS” (priority 2021, published 2024)
